The record followed here is patent US20040192771A1, “Ether compounds and compositions for cholesterol management and related uses” (priority 2001, published 2004).

Like-named read-outs stand apart in the source and are kept apart here.

One assay concerns obese female Zucker rats. The experiment in a line: Oral daily treatment of obese female Zucker rats for fourteen days; serum lipids and glycemic control indicators. It counts as in vivo. As to conditions: Rattus norvegicus, percent change from study prebleed; for change in vivo at 100 mg/kg/day: 100 mg/kg/day oral; for change in vivo at 30 mg/kg/day: 30 mg/kg/day oral; for change in vivo at 70 mg/kg/day: 70 mg/kg/day oral. As to the method:
In a number of different experiments, illustrative compounds of the invention are administered daily at a dose of up to 100 mg/kg to chow fed obese female Zucker rats for fourteen days in the morning by oral gavage in 1.5% carboxymethylcellulose/0.2% Tween 20 or 20% ethanol/80% polyethylene glycol (dosing vehicles). Animals are weighed daily. Animals are allowed free access to rodent chow and water throughout the study except on days of blood sampling where food is restricted for six hours prior to blood sampling. Blood glucose is determined after the 6 hour fast in the afternoon without anesthesia from a tail vein. Serum is also prepared from pretreatment blood samples subsequently obtained from the orbital venous plexus (with O2/CO2 anesthesia) and following the fourteenth dose at sacrifice from the heart following O2/CO2 anesthesia. Serums are assayed for lipoprotein cholesterol profiles, triglycerides, total cholesterol, Non HDL cholesterol, HDL cholesterol, the ratio of HDL cholesterol to that of Non HDL cholesterol, insulin, non esterified fatty acids, and beta hydroxy butyric acid. The percent body weight gain and the ratio of liver to body weight is also determined. These are shown as absolute values or as a percent change of the pretreatment values in Table C. [drawing 479] [drawing 480]

For another assay, the system named is primary rat hepatocytes. As to the kind of experiment: Inhibition of lipid synthesis ([1-14C]-acetate incorporation) in primary cultures of rat hepatocytes. It counts as cell-based. To be noted: Hepatocyte, total lipid synthesis, 4 hours incubation. As to the method:
Compounds were tested for inhibition of lipid synthesis in primary cultures of rat hepatocytes. Male Sprague-Dawley rats were anesthetized with intraperitoneal injection of sodium pentobarbital (80 mg/kg). Rat hepatocytes were isolated essentially as described by the method of Seglen (Seglen, P. O. Hepatocyte suspensions and cultures as tools in experimental carcinogenesis. J. Toxicol. Environ. Health 1979, 5, 551-560). Hepatocytes were suspended in Dulbecco's Modified Eagles Medium containing 25 mM D-glucose, 14 mM HEPES, 5 mM L-glutamine, 5 mM leucine, 5 mM alanine, 10 mM lactate, 1 mM pyruvate, 0.2% bovine serum albumin, 17.4 mM non-essential amino acids, 20% fetal bovine serum, 100 nM insulin and 20 μg/mL gentamycin) and plated at a density of 1.5×10^5 cells/cm^2 on collagen-coated 96-well plates. Four hours after plating, media was replaced with the same media without serum. Cells were grown overnight to allow formation of monolayer cultures. Lipid synthesis incubation conditions were initially assessed to ensure the linearity of [1-^14C]-acetate incorporation into hepatocyte lipids for up to 4 hours. Hepatocyte lipid synthesis inhibitory activity was assessed during incubations in the presence of 0.25 μCi [1-^14C]-acetate/well (final radiospecific activity in assay is 1 Ci/mol) and 0, 1, 3, 10, 30, 100 or 300 μM of compounds for 4 hours. At the end of the 4-hour incubation period, medium was discarded and cells were washed twice with ice-cold phosphate buffered saline and stored frozen prior to analysis. To determine total lipid synthesis, 170 μl of MicroScint-E® and 50 μl water was added to each well to extract and partition the lipid soluble products to the upper organic phase containing the scintillant. Lipid radioactivity was assessed by scintillation spectroscopy in a Packard TopCount NXT.

[1] abbreviates: 168 h, week 1, read-out: Glucose.
Setting [2] is: 168 h, week 1, read-out: Insulin.
The mark [3] stands for this setting: 168 h, week 1, read-out: Non-HDL-C.
Setting [4] is: 336 h, week 2, read-out: Glucose.
Where [5] appears, read: 336 h, week 2, read-out: Insulin.
Setting [6] is: 336 h, week 2, read-out: Non-HDL-C.

Turning to `CC(C)(CCCCOCCCCC(C)(C)COC1CCCCO1)COC1CCCCO1` (stereo not drawn) [Compound 122, 2-{6-[5,5-Dimethyl-6-(tetrahydropyran-2-yloxy)-hexyloxy]-2,2-dimethylhexyloxy}-tetrahydropyran], the change in vivo at 100 mg/kg/day in the assay on obese female Zucker rats (setting [1]) is -7%; with obese female Zucker rats (168 h, week 1, read-out: HDL-C), 43%; with obese female Zucker rats (setting [2]), -18%; in the assay with obese female Zucker rats (setting [3]) it was 46%; in the assay on obese female Zucker rats (168 h, week 1, read-out: TC), 42%; with obese female Zucker rats (168 h, week 1, read-out: TG), -1%. In addition, the change in vivo at 100 mg/kg/day in the assay with obese female Zucker rats (setting [4]) is 9%; in the assay with obese female Zucker rats (336 h, week 2, read-out: HDL-C), 79%; in the assay on obese female Zucker rats (setting [5]) it was -20%; in the assay on obese female Zucker rats (setting [6]), 92%; in the assay on obese female Zucker rats (336 h, week 2, read-out: TC) it was 79%; with obese female Zucker rats (336 h, week 2, read-out: TG) it was 22%. Moreover, it took 20 µM to reach half-maximal inhibition in the assay with primary rat hepatocytes (IC50).

For `CC(CO)(CCCCOCCCCC(C)(CO)c1ccccc1)c1ccccc1` (stereo not drawn) [Compound 111, 6-(6-Hydroxy-5-methyl-5-phenylhexyloxy)-2-methyl-2-phenylhexan-1-ol], the change in vivo at 30 mg/kg/day in the assay with obese female Zucker rats (168 h, week 1, read-out: HDL-C) is -4%; in the assay with obese female Zucker rats (setting [2]), -37%; with obese female Zucker rats (setting [3]) it was -33%; in the assay with obese female Zucker rats (168 h, week 1, read-out: TC), -17%; with obese female Zucker rats (168 h, week 1, read-out: TG), -14%; in the assay on obese female Zucker rats (setting [4]) it was -18%. The change in vivo at 30 mg/kg/day with obese female Zucker rats (336 h, week 2, read-out: HDL-C) is -28%; in the assay with obese female Zucker rats (setting [5]), -36%; in the assay on obese female Zucker rats (setting [6]), -1%; in the assay on obese female Zucker rats (336 h, week 2, read-out: TC), -20%; in the assay on obese female Zucker rats (336 h, week 2, read-out: TG), -7%. In addition, the IC50 (commonly the concentration at which inhibition is half-maximal) in the assay on primary rat hepatocytes stood at 106 µM.

Take `CC(C)(Cc1cccc(Oc2cccc(CC(C)(C)C(=O)O)c2)c1)C(=O)O` [Compound 135, 3-{3-[3-(2-Carboxy-2-methylpropyl)-phenoxy]-phenyl}-2,2-dimethylpropionic acid]: the change in vivo at 70 mg/kg/day with obese female Zucker rats (setting [1]) is -13%; with obese female Zucker rats (168 h, week 1, read-out: HDL-C), 63%; in the assay on obese female Zucker rats (setting [2]) it was -43%; in the assay with obese female Zucker rats (setting [3]), -53%; in the assay with obese female Zucker rats (168 h, week 1, read-out: TC), 3%; with obese female Zucker rats (168 h, week 1, read-out: TG), -45%. In addition, the change in vivo at 70 mg/kg/day was -16% in the assay with obese female Zucker rats (setting [4]); 31% with obese female Zucker rats (336 h, week 2, read-out: HDL-C); 1% in the assay on obese female Zucker rats (setting [5]); -41% in the assay on obese female Zucker rats (setting [6]); -7% with obese female Zucker rats (336 h, week 2, read-out: TC); -52% with obese female Zucker rats (336 h, week 2, read-out: TG). In the assay with primary rat hepatocytes, this molecule had an IC50 of 52 µM.

For `CC(C)(CO)CCCCCOCCCCCC(C)(C)CO` [Compound 131, 7-(7-Hydroxy-6,6-dimethylheptyloxy)-2,2-dimethylheptan-1-ol], the change in vivo at 100 mg/kg/day is -6% with obese female Zucker rats (setting [1]); 292% in the assay on obese female Zucker rats (168 h, week 1, read-out: HDL-C); 40% in the assay on obese female Zucker rats (setting [2]); -79% in the assay on obese female Zucker rats (setting [3]); 85% in the assay with obese female Zucker rats (168 h, week 1, read-out: TC); -91% in the assay with obese female Zucker rats (168 h, week 1, read-out: TG). The change in vivo at 100 mg/kg/day is -5% with obese female Zucker rats (setting [4]); 289% in the assay with obese female Zucker rats (336 h, week 2, read-out: HDL-C); -1% in the assay on obese female Zucker rats (setting [5]); -57% with obese female Zucker rats (setting [6]); 106% with obese female Zucker rats (336 h, week 2, read-out: TC); -88% in the assay with obese female Zucker rats (336 h, week 2, read-out: TG). In addition, the half-maximal inhibitory concentration (IC50) in the assay with primary rat hepatocytes came to 3.8 µM.

For `CC(C)(CO)CCCC1CCCC(CCCC(C)(C)CO)O1` (stereo not drawn) [Compound 141, 5-[6-(5-Hydroxy-4,4-dimethylpentyl)-tetrahydropyran-2-yl]-2,2-dimethylpentan-1-ol], the change in vivo at 100 mg/kg/day is -14% in the assay on obese female Zucker rats (setting [1]); 75% with obese female Zucker rats (168 h, week 1, read-out: HDL-C); -2% in the assay with obese female Zucker rats (setting [2]); -70% in the assay with obese female Zucker rats (setting [3]); 28% in the assay on obese female Zucker rats (168 h, week 1, read-out: TC); -74% in the assay on obese female Zucker rats (168 h, week 1, read-out: TG). The change in vivo at 100 mg/kg/day with obese female Zucker rats (setting [4]) is -9%; in the assay with obese female Zucker rats (336 h, week 2, read-out: HDL-C) it was 127%; in the assay with obese female Zucker rats (setting [5]) it was 10%; in the assay on obese female Zucker rats (setting [6]), -31%; in the assay on obese female Zucker rats (336 h, week 2, read-out: TC) it was 70%; in the assay on obese female Zucker rats (336 h, week 2, read-out: TG), -47%. This molecule registered an IC50 with primary rat hepatocytes of 39 µM.

With `CC(C)(CCCCOCCCCC(C)(C)CCC(=O)O)CCC(=O)O` [Compound 145, 4,4,14,14-Tetramethyl-9-oxaheptadecane-1,17-dioic acid], the change in vivo at 100 mg/kg/day is -1% with obese female Zucker rats (setting [1]); 13% with obese female Zucker rats (168 h, week 1, read-out: HDL-C); -34% in the assay on obese female Zucker rats (setting [2]); -50% with obese female Zucker rats (setting [3]); -3% with obese female Zucker rats (168 h, week 1, read-out: TC); -80% in the assay with obese female Zucker rats (168 h, week 1, read-out: TG). In addition, the change in vivo at 100 mg/kg/day with obese female Zucker rats (setting [4]) was 16%; in the assay with obese female Zucker rats (336 h, week 2, read-out: HDL-C), 39%; in the assay with obese female Zucker rats (setting [5]), -45%; in the assay on obese female Zucker rats (setting [6]) it was -30%; with obese female Zucker rats (336 h, week 2, read-out: TC), 21%; in the assay on obese female Zucker rats (336 h, week 2, read-out: TG), -73%. Also, it took 22 µM to reach half-maximal inhibition with primary rat hepatocytes (IC50).

As to `CC(C)(CO)CCCCOCCCCC(C)(C)CO` [Compound 128, 6-(6-Hydroxy-5,5-dimethylhexyloxy)-2,2dimethylhexan-1-ol], the change in vivo at 30 mg/kg/day in the assay with obese female Zucker rats (setting [1]) is 2%; with obese female Zucker rats (168 h, week 1, read-out: HDL-C) it was 174%; in the assay with obese female Zucker rats (setting [2]), 48%; in the assay on obese female Zucker rats (setting [3]), -14%; in the assay with obese female Zucker rats (168 h, week 1, read-out: TC), 131%; with obese female Zucker rats (168 h, week 1, read-out: TG), -52%. The change in vivo at 30 mg/kg/day with obese female Zucker rats (setting [4]) is 44%; in the assay with obese female Zucker rats (336 h, week 2, read-out: HDL-C) it was 349%; in the assay on obese female Zucker rats (setting [5]), 48%; with obese female Zucker rats (setting [6]), 59%; with obese female Zucker rats (336 h, week 2, read-out: TC), 224%; with obese female Zucker rats (336 h, week 2, read-out: TG) it was -39%. The concentration for half-maximal inhibition (IC50) in the assay with primary rat hepatocytes is 10 µM.
